{"source": "PubChem BioAssay (NCI)", "assay_in_all_cases": "NCI-60 cell line screen, 48 h", "key": {"MDA-MB-231 breast": {"test_system": "MDA-MB-231 breast"}, "SNB-19 CNS": {"test_system": "SNB-19 CNS"}, "SK-MEL-2 melanoma": {"test_system": "SK-MEL-2 melanoma"}, "BT-549 breast": {"test_system": "BT-549 breast"}, "HL-60(TB) leukemia": {"test_system": "HL-60(TB) leukemia"}, "NCI-H460 lung": {"test_system": "NCI-H460 lung"}, "CCRF-CEM leukemia": {"test_system": "CCRF-CEM leukemia"}, "COLO 205 colon": {"test_system": "COLO 205 colon"}, "HCT-116 colon": {"test_system": "HCT-116 colon"}, "EKVX NSCLC": {"test_system": "EKVX NSCLC"}}, "note": "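A five-concentration, 48-hour dose response in 96-well plates underlies each endpoint, interpolated linearly between surrounding concentrations. Abbreviation: GI50, concentration required for 50% inhibition of growth. TGI marks complete inhibition of growth.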", "data": [{"smiles": "COc1ccccc1C1C(C#N)=C(N)Oc2n[nH]c(C)c21", "note": "(stereo not given)", "values": [{"measurement": "GI50", "setting": "MDA-MB-231 breast", "result": 15.1, "unit": "µM"}, {"measurement": "TGI", "setting": "MDA-MB-231 breast", "result": "> 100", "unit": "µM"}, {"measurement": "GI50", "setting": "SNB-19 CNS", "result": "> 100", "unit": "µM"}, {"measurement": "TGI", "setting": "SNB-19 CNS", "result": "> 100", "unit": "µM"}, {"measurement": "GI50", "setting": "SK-MEL-2 melanoma", "result": "> 100", "unit": "µM"}, {"measurement": "TGI", "setting": "SK-MEL-2 melanoma", "result": "> 100", "unit": "µM"}, {"measurement": "GI50", "setting": "BT-549 breast", "result": "> 100", "unit": "µM"}, {"measurement": "TGI", "setting": "BT-549 breast", "result": "> 100", "unit": "µM"}, {"measurement": "GI50", "setting": "HL-60(TB) leukemia", "result": 62, "unit": "µM"}, {"measurement": "TGI", "setting": "HL-60(TB) leukemia", "result": "> 100", "unit": "µM"}, {"measurement": "GI50", "setting": "NCI-H460 lung", "result": "> 100", "unit": "µM"}, {"measurement": "TGI", "setting": "NCI-H460 lung", "result": "> 100", "unit": "µM"}, {"measurement": "GI50", "setting": "CCRF-CEM leukemia", "result": 22.8, "unit": "µM"}, {"measurement": "TGI", "setting": "CCRF-CEM leukemia", "result": "> 100", "unit": "µM"}, {"measurement": "GI50", "setting": "COLO 205 colon", "result": "> 100", "unit": "µM"}, {"measurement": "TGI", "setting": "COLO 205 colon", "result": "> 100", "unit": "µM"}, {"measurement": "GI50", "setting": "HCT-116 colon", "result": 90.7, "unit": "µM"}, {"measurement": "TGI", "setting": "HCT-116 colon", "result": "> 100", "unit": "µM"}, {"measurement": "GI50", "setting": "EKVX NSCLC", "result": "> 100", "unit": "µM"}, {"measurement": "TGI", "setting": "EKVX NSCLC", "result": "> 100", "unit": "µM"}]}]}
